Measurements from US6914045B2, “Glycopeptide antibiotics” (Wyeth Holdings Corporation, priority 2001, dated 2005).

What was measured:
Test in all cases: in vitro antibacterial evaluation, MIC by broth dilution
Format in all cases: cell-based
Enterococcus sp. = settings: broth dilution, 18 hours at 35° C.
Method in brief: (§1)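 Step 1: dilute antibiotic across 64-0.06 μg/mL in Muller-Hinton II […]. Step 2: inoculate at 5×10^5 CFU/mL.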

Staphylococcus sp. = settings: broth dilution, 18 hours at 35° C.; for MIC Staphylococcus aureus (ATCC 29213): strain ATCC 29213; for MIC Staphylococcus aureus (GC 1131): strain GC 1131; for MIC Staphylococcus aureus (GC 3051): strain GC 3051; for MIC Staphylococcus aureus (GC 3053): strain GC 3053; for MIC Staphylococcus aureus (GC 4541): strain GC 4541; for MIC Staphylococcus aureus (GC 4542): strain GC 4542; for MIC Staphylococcus aureus (GC 4544): strain GC 4544; for MIC Staphylococcus aureus (GC 4545): strain GC 4545
Method in brief: as §1

Streptococcus sp. = settings: broth dilution, 18 hours at 35° C.
Method in brief: as §1

Escherichia coli = settings: 18 hours at 35° C.
Method in brief: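 MIC is the lowest antibiotic concentration (tested 64-0.06 μg/mL) preventing growth of a 5×10^5 CFU/mL inoculum. Determined by broth dilution in Mueller-Hinton II medium following NCCLS standard M7-A2.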

CC(c1ccccc1)C1NC(=O)CNC(=O)C(CO)NC(=O)C(C(O)C2CN(c3nc4ccccc4o3)C(=N)N2C2OC(CO)C(O)C(O)C2O)NC(=O)C(C(O)C2CNC(=Nc3nc4ccccc4o3)N2)NC(=O)C(Cc2ccc(OC3OC(CO)C(OC4OC(CO)C(O)C(O)C4O)C(O)C3O)cc2)NC1=O (stereo not drawn) [Example 93, Cyclo[glycyl-β-methylphenylalanyl-O-(4-O-hexopyranosylhexopyranosyl)tyrosyl-3-[2-(1,3-benzoxazol-2-ylimino)imidazolidin-4-yl]seryl-3-[1-(1,3-benzoxaxol-2-yl)-3-hexopyranosyl-2-iminoimidazolidin-4-yl]serylseryl]]
>128 µg/mL: MIC Enterococcus faecalis (ATCC 29212) (Enterococcus sp.; Enterococcus faecalis (ATCC 29212)) | MIC Enterococcus faecalis (GC 4552) (Enterococcus sp.; Enterococcus faecalis (GC 4552)) | MIC Enterococcus faecalis (GC 4553) (Enterococcus sp.; Enterococcus faecalis (GC 4553)) | MIC Enterococcus faecalis (GC 4554) (Enterococcus sp.; Enterococcus faecalis (GC 4554)) | MIC Enterococcus faecalis (GC 6189) (Enterococcus sp.; Enterococcus faecalis (GC 6189)) | MIC Enterococcus faecium (GC 2243) (Enterococcus sp.; Enterococcus faecium (GC 2243)) | MIC Enterococcus faecium (GC 4556) (Enterococcus sp.; Enterococcus faecium (GC 4556)) | MIC Enterococcus faecalis (ATCC 29212) (Enterococcus sp.) | MIC Enterococcus faecalis (GC 2242) (Enterococcus sp.) | MIC Enterococcus faecalis (GC 2691) (Enterococcus sp.) | MIC Enterococcus faecalis (GC 3059) (Enterococcus sp.) | MIC Enterococcus faecalis (GC 4552) (Enterococcus sp.) | MIC Enterococcus faecalis (GC 4553) (Enterococcus sp.) | MIC Enterococcus faecalis (GC 4554) (Enterococcus sp.) | MIC Enterococcus faecalis (GC 6189) (Enterococcus sp.) | MIC Enterococcus faecium (GC 2243) (Enterococcus sp.) | MIC Enterococcus faecium (GC 4556) (Enterococcus sp.) | MIC Enterococcus faecalis (GC 2242) (Enterococcus sp.; strain GC 2242) | MIC Enterococcus faecalis (GC 2691) (Enterococcus sp.; strain GC 2691) | MIC Enterococcus faecalis (GC 3059) (Enterococcus sp.; strain GC 3059) | MIC Coagulase Negative Staphylococcus (GC 4547) (Staphylococcus sp.) | MIC Coagulase Negative Staphylococcus (GC 4548) (Staphylococcus sp.) | MIC Coagulase Negative Staphylococcus (GC 4549) (Staphylococcus sp.) | MIC Coagulase Negative Staphylococcus (GC 4551) (Staphylococcus sp.) | MIC Staphylococcus aureus-SMITH (GC 4543) (Staphylococcus sp.) | MIC Staphylococcus haemolyticus (GC 4546) (Staphylococcus sp.) | MIC Staphylococcus aureus (ATCC 29213) (Staphylococcus sp.) | MIC Staphylococcus aureus (GC 1131) (Staphylococcus sp.) | MIC Staphylococcus aureus (GC 3051) (Staphylococcus sp.) | MIC Staphylococcus aureus (GC 3053) (Staphylococcus sp.) | MIC Staphylococcus aureus (GC 4541) (Staphylococcus sp.) | MIC Staphylococcus aureus (GC 4542) (Staphylococcus sp.) | MIC Staphylococcus aureus-SMITH (GC 4543) (Staphylococcus sp.; strain GC 4543) | MIC Staphylococcus aureus (GC 4544) (Staphylococcus sp.) | MIC Staphylococcus aureus (GC 4545) (Staphylococcus sp.) | MIC Staphylococcus haemolyticus (GC 4546) (Staphylococcus sp.; strain GC 4546) | MIC Coagulase Negative Staphylococcus (GC 4547) (Staphylococcus sp.; strain GC 4547) | MIC Coagulase Negative Staphylococcus (GC 4548) (Staphylococcus sp.; strain GC 4548) | MIC Coagulase Negative Staphylococcus (GC 4549) (Staphylococcus sp.; strain GC 4549) | MIC Coagulase Negative Staphylococcus (GC 4551) (Staphylococcus sp.; strain GC 4551) | MIC Streptococcus agalactiae (GC 4564) (Streptococcus sp.) | MIC Streptococcus pneumoniae (ATCC 6301) (Streptococcus sp.) | MIC Streptococcus pneumoniae (GC 4565) (Streptococcus sp.) | MIC Streptococcus pyogenes (GC 4563) (Streptococcus sp.) | MIC Streptococcus pneumoniae (ATCC 6301) (Streptococcus sp.; strain ATCC 6301) | MIC Streptococcus pyogenes (GC 4563) (Streptococcus sp.; strain GC 4563) | MIC Streptococcus agalactiae (GC 4564) (Streptococcus sp.; strain GC 4564) | MIC Streptococcus pneumoniae (GC 4565) (Streptococcus sp.; strain GC 4565) | MIC Escherichia coli (ATCC 25922) (Escherichia coli) | MIC Escherichia coli (GC 4559) (Escherichia coli) | MIC Escherichia coli (GC 4560) (Escherichia coli)
128 µg/mL: MIC Enterococcus avium (GC 4558) (Enterococcus sp.; Enterococcus avium (GC 4558)) | MIC Enterococcus faecium (GC 4557) (Enterococcus sp.; Enterococcus faecium (GC 4557)) | MIC Enterococcus avium (GC 4558) (Enterococcus sp.) | MIC Enterococcus faecium (GC 4557) (Enterococcus sp.) | MIC Streptococcus pneumoniae (GC 1894) (Streptococcus sp.) | MIC Streptococcus pneumoniae (GC 1894) (Streptococcus sp.; strain GC 1894)

CC(c1ccccc1)C1NC(=O)CNC(=O)C(CO)NC(=O)C(C(O)C2CNC(=N)N2C2OC(CO)C(O)C(O)C2O)NC(=O)C(C(O)C2CNC(=N)N2)NC(=O)C(Cc2ccc(OC3OC(CO)C(OC4OC5COC6(CC(C)(C)CC(C)(C)C6)OC5C(O)C4O)C(O)C3O)cc2)NC1=O (stereo not drawn) [Example 207]
4 µg/mL: MIC Enterococcus faecalis (ATCC 29212) (Enterococcus sp.) | MIC Enterococcus faecalis (GC 2242) (Enterococcus sp.) | MIC Enterococcus faecalis (GC 4552) (Enterococcus sp.) | MIC Enterococcus faecalis (GC 4553) (Enterococcus sp.) | MIC Enterococcus faecalis (GC 4554) (Enterococcus sp.) | MIC Enterococcus faecium (GC 2243) (Enterococcus sp.) | MIC Enterococcus faecium (GC 4556) (Enterococcus sp.) | MIC Enterococcus faecalis (ATCC 29212) (Enterococcus sp.; inoculum 5×10^5 CFU/mL, strain ATCC 29212) | MIC Enterococcus faecalis (GC 2242) (Enterococcus sp.; inoculum 5×10^5 CFU/mL, strain GC 2242) | MIC Enterococcus faecium (GC 2243) (Enterococcus sp.; inoculum 5×10^5 CFU/mL, strain GC 2243) | MIC Enterococcus faecalis (GC 4552) (Enterococcus sp.; inoculum 5×10^5 CFU/mL, strain GC 4552) | MIC Enterococcus faecalis (GC 4553) (Enterococcus sp.; inoculum 5×10^5 CFU/mL, strain GC 4553) | MIC Enterococcus faecalis (GC 4554) (Enterococcus sp.; inoculum 5×10^5 CFU/mL, strain GC 4554) | MIC Enterococcus faecium (GC 4556) (Enterococcus sp.; inoculum 5×10^5 CFU/mL, strain GC 4556) | MIC Coagulase Negative Staphylococcus (GC 4551) (Staphylococcus sp.; strain GC 4551)
2 µg/mL: MIC Enterococcus faecalis (GC 2691) (Enterococcus sp.) | MIC Enterococcus faecalis (GC 3059) (Enterococcus sp.) | MIC Enterococcus faecalis (GC 6189) (Enterococcus sp.) | MIC Enterococcus faecium (GC 4557) (Enterococcus sp.) | MIC Enterococcus faecalis (GC 2691) (Enterococcus sp.; inoculum 5×10^5 CFU/mL, strain GC 2691) | MIC Enterococcus faecalis (GC 3059) (Enterococcus sp.; inoculum 5×10^5 CFU/mL, strain GC 3059) | MIC Enterococcus faecium (GC 4557) (Enterococcus sp.; inoculum 5×10^5 CFU/mL, strain GC 4557) | MIC Enterococcus faecalis (GC 6189) (Enterococcus sp.; inoculum 5×10^5 CFU/mL, strain GC 6189) | MIC Staphylococcus aureus (GC 1131) (Staphylococcus sp.) | MIC Staphylococcus aureus (GC 3051) (Staphylococcus sp.) | MIC Escherichia coli (GC 4560) (Escherichia coli)
1 µg/mL: MIC Enterococcus avium (GC 4558) (Enterococcus sp.) | MIC Enterococcus avium (GC 4558) (Enterococcus sp.; inoculum 5×10^5 CFU/mL, strain GC 4558) | MIC Staphylococcus aureus (ATCC 29213) (Staphylococcus sp.) | MIC Staphylococcus aureus (GC 3053) (Staphylococcus sp.) | MIC Staphylococcus aureus (GC 4541) (Staphylococcus sp.) | MIC Staphylococcus aureus (GC 4542) (Staphylococcus sp.) | MIC Staphylococcus aureus-SMITH (GC 4543) (Staphylococcus sp.; strain GC 4543) | MIC Staphylococcus aureus (GC 4544) (Staphylococcus sp.) | MIC Staphylococcus aureus (GC 4545) (Staphylococcus sp.) | MIC Staphylococcus haemolyticus (GC 4546) (Staphylococcus sp.; strain GC 4546) | MIC Coagulase Negative Staphylococcus (GC 4547) (Staphylococcus sp.; strain GC 4547)
<0.12 µg/mL: MIC Streptococcus agalactiae (GC 4564) (Streptococcus sp.) | MIC Streptococcus pneumoniae (ATCC 6301) (Streptococcus sp.) | MIC Streptococcus pneumoniae (GC 1894) (Streptococcus sp.) | MIC Streptococcus pneumoniae (GC 4565) (Streptococcus sp.) | MIC Streptococcus pyogenes (GC 4563) (Streptococcus sp.) | MIC Streptococcus pneumoniae (ATCC 6301) (Streptococcus sp.; inoculum 5×10^5 CFU/mL, strain ATCC 6301) | MIC Streptococcus pneumoniae (GC 1894) (Streptococcus sp.; inoculum 5×10^5 CFU/mL, strain GC 1894) | MIC Streptococcus pyogenes (GC 4563) (Streptococcus sp.; inoculum 5×10^5 CFU/mL, strain GC 4563) | MIC Streptococcus agalactiae (GC 4564) (Streptococcus sp.; inoculum 5×10^5 CFU/mL, strain GC 4564) | MIC Streptococcus pneumoniae (GC 4565) (Streptococcus sp.; inoculum 5×10^5 CFU/mL, strain GC 4565)
0.5 µg/mL: MIC Coagulase Negative Staphylococcus (GC 4548) (Staphylococcus sp.; strain GC 4548) | MIC Coagulase Negative Staphylococcus (GC 4549) (Staphylococcus sp.; strain GC 4549)
32 µg/mL: MIC Escherichia coli (ATCC 25922) (Escherichia coli)
64 µg/mL: MIC Escherichia coli (GC 4559) (Escherichia coli)
